Laboratory results taken from US11415579B2, “Assay for measuring a rate of reaction between a target and a ligand candidate” (Imperial College Innovations Ltd., priority 2016, dated 2022).

Columns and labels:
Cdk2(R122C) (C177A) = biological target: T1, Cdk2(R122C) (C177A) (Homo sapiens, UniProt P24941, C177A/R122C); experiment: Kinetic thiol consumption assay with Cdk2 mutant R122C; assay type: binding; set-up: key to Rate enhancement, Cdk2 R122C: rate constant with Cdk2 ÷ rate constant with model thiol (fold); conditions: additional mutation C177A; for Rate constant with Cdk2 R122C: Protein: Cdk2, cysteine position R122C, in h-1
T1 construct: poly-histidine; made in house; host or cells: E. coli
Outline: (§1)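 Thiol consumption was monitored kinetically using 5 μM Cdk2 (C177A plus one introduced cysteine) in degassed phosphate buffer at pH 8 with TCEP beads. Plates were kept 1 h at room temperature before fluorescence reading, and rate constants came from exponential decay fitting.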

[1] = Kinetic thiol consumption assay with model thiol glutathione; assay type: physicochemical; set-up: Rate constant with glutathione (k(GSH)): unit not given here; conditions: for Rate constant with glutathione (k(GSH)): 500 μM ligand, 5 μM thiol, phosphate buffer pH 8; for Rate constant with Glutathione: Protein: Glutathione, cysteine position NA, in h-1
Outline: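 GSH 5 μM, degassed phosphate buffer pH 8, TCEP beads 2% v/v; acrylamide added; RT, 1 h; fluorescence ex/em 380/470 nm; normalized to DMSO/thiol control; k from first-order exponential decay fit.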

Cdk2(T182C) (C177A) = biological target: T2, Cdk2(T182C) (C177A) (Homo sapiens, UniProt P24941, C177A/T182C); experiment: Kinetic thiol consumption assay with Cdk2 mutant T182C; assay type: binding; set-up: key to Rate enhancement, Cdk2 T182C: rate constant with Cdk2 ÷ rate constant with model thiol (fold); conditions: additional mutation C177A; for Rate constant with Cdk2 T182C: Protein: Cdk2, cysteine position T182C, in h^-1
T2 construct: poly-histidine; made in house; host or cells: E. coli
Outline: as §1

[2] = biological target: T3, human cyclin-dependent kinase 2 (Cdk2) (Homo sapiens, UniProt P24941); experiment: Kinetic thiol consumption assay with wild type Cdk2 (C177); assay type: binding; set-up: key to Rate enhancement, Cdk2 WT: k(Cdk2) divided by k(model thiol); Rate constant with Cdk2 (k(Cdk2)): unit not given here; conditions: for Rate constant with Cdk2 (k(Cdk2)): 500 μM ligand, 5 μM thiol, phosphate buffer pH 8; for Rate enhancement, Cdk2 WT: no additional mutations; for Rate constant with Cdk2 WT: Protein: Cdk2, cysteine position WT, in h^-1; for k(Cdk2)/k(Cdk2_mut) rate enhancement: model thiol Cdk2[C177A, F80C, K278C]; for k(Cdk2)/k(GSH) rate enhancement: model thiol glutathione
T3 construct: poly-histidine; made in house; host or cells: E. coli
Outline: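 His-tagged human Cdk2 (single surface cysteine C177), expressed in E. coli, or a model thiol at 5 μM in degassed phosphate buffer pH 8 was pre-treated with immobilized TCEP beads (2% v/v) before acrylamide addition. Fluorescence (ex/em 380/470 nm) was read after 1 h at room temperature, normalized to DMSO/thiol-only control and plotted versus time.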

Cdk2(S276C) (C177A) = biological target: T4, Cdk2(S276C) (C177A) (Homo sapiens, UniProt P24941, C177A/S276C); experiment: Kinetic thiol consumption assay with Cdk2 mutant S276C; assay type: binding; set-up: key to Rate enhancement, Cdk2 S276C: rate constant with Cdk2 ÷ rate constant with model thiol (fold); conditions: additional mutation C177A; for Rate constant with Cdk2 S276C: Protein: Cdk2, cysteine position S276C, in h^-1
T4 construct: poly-histidine; made in house; host or cells: E. coli
Outline: as §1

Cdk2(N272C) (C177A) = biological target: T5, Cdk2(N272C) (C177A) (Homo sapiens, UniProt P24941, C177A/N272C); experiment: Kinetic thiol consumption assay with Cdk2 mutant N272C; assay type: binding; set-up: key to Rate enhancement, Cdk2 N272: rate constant with Cdk2 ÷ rate constant with model thiol (fold); conditions: for Rate enhancement, Cdk2 N272: Cdk2 N272, additional mutation C177A; for Rate constant with Cdk2 N272C: Protein: Cdk2, cysteine position N272C, additional mutation C177A, in h^-1
T5 construct: poly-histidine; made in house; host or cells: E. coli
Outline: as §1

Cdk2(C177A, F80C) = biological target: T6, Cdk2(C177A, F80C) (Homo sapiens, UniProt P24941, C177A/F80C); experiment: Kinetic thiol consumption assay with Cdk2 mutant F80C, incl. kobs versus concentration (Kd, k2); assay type: binding; set-up: key to Rate enhancement, Cdk2 F80C: Cdk2 rate constant divided by model-thiol rate constant; conditions: additional mutation C177A; for Rate constant with Cdk2 F80C: Protein: Cdk2, cysteine position F80C, in h^-1
T6 construct: poly-histidine; made in house; host or cells: E. coli
Outline: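 His-tagged Cdk2(C177A/F80C) from E. coli or model thiol, 5 μM in degassed phosphate buffer pH 8 with TCEP beads, reacted with acrylamide ligands; fluorescence (ex/em 380/470 nm) normalized to DMSO control and fitted to first-order decay for kobs. Kd and k2 obtained from hyperbolic fit of kobs versus ligand concentration.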

Cdk2(H71C) (C177A) = biological target: T7, Cdk2(H71C) (C177A) (Homo sapiens, UniProt P24941, C177A/H71C); experiment: Kinetic thiol consumption assay with Cdk2 mutant H71C; assay type: binding; set-up: key to Rate enhancement, Cdk2 H71C: rate constant with Cdk2 ÷ rate constant with model thiol (fold); conditions: additional mutation C177A; for Rate constant with Cdk2 H71C: Protein: Cdk2, cysteine position H71C, in h^-1
T7 construct: poly-histidine; made in house; host or cells: E. coli
Outline: as §1

Cdk2(S181C) (C177A) = biological target: T8, Cdk2(S181C) (C177A) (Homo sapiens, UniProt P24941, C177A/S181C); experiment: Kinetic thiol consumption assay with Cdk2 mutant S181C; assay type: binding; set-up: key to Rate enhancement, Cdk2 S181C: rate constant with Cdk2 ÷ rate constant with model thiol (fold); conditions: additional mutation C177A; for Rate constant with Cdk2 S181C: Protein: Cdk2, cysteine position S181C, in h^-1
T8 construct: poly-histidine; made in house; host or cells: E. coli
Outline: as §1

Cdk2[C177A, F80C, K278C] = biological target: T9, Cdk2[C177A, F80C, K278C] (Homo sapiens, UniProt P24941, C177A/F80C/K278C); experiment: Kinetic thiol consumption assay with mutant Cdk2 as model thiol; assay type: binding; set-up: unit not given here; conditions: 500 μM ligand, 5 μM thiol, phosphate buffer pH 8
T9 construct: poly-histidine; made in house; host or cells: E. coli
Outline: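 First-order rate constants were derived by exponential-decay fitting of DMSO/thiol-normalized fluorescence (380/470 nm) over time at room temperature. Thiol was 5 μM E. coli-expressed His-tagged Cdk2 mutant C177A/F80C/K278C in degassed pH 8 phosphate buffer containing 2% v/v TCEP beads.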

| SMILES | Rate enhancement, Cdk2 R122C (Cdk2(R122C) (C177A)) | Rate constant with Cdk2 R122C (Cdk2(R122C) (C177A)) | Rate constant with glutathione (k(GSH)) [1] | Rate constant with Glutathione [1] | Rate enhancement, Cdk2 T182C (Cdk2(T182C) (C177A)) | Rate constant with Cdk2 T182C (Cdk2(T182C) (C177A)) | Rate constant with Cdk2 (k(Cdk2)) [2] | Rate enhancement, Cdk2 WT [2] | Rate constant with Cdk2 WT [2] | k(Cdk2)/k(Cdk2_mut) rate enhancement [2] | k(Cdk2)/k(GSH) rate enhancement [2] | Rate enhancement, Cdk2 S276C (Cdk2(S276C) (C177A)) | Rate constant with Cdk2 S276C (Cdk2(S276C) (C177A)) | Rate enhancement, Cdk2 N272 (Cdk2(N272C) (C177A)) | Rate constant with Cdk2 N272C (Cdk2(N272C) (C177A)) | Rate enhancement, Cdk2 F80C (Cdk2(C177A, F80C)) | Rate constant with Cdk2 F80C (Cdk2(C177A, F80C)) | Rate enhancement, Cdk2 H71C (Cdk2(H71C) (C177A)) | Rate enhancement, Cdk2 S181C (Cdk2(S181C) (C177A)) | Rate constant with Cdk2[C177A, F80C, K278C] (k(Cdk2_mut)) (Cdk2[C177A, F80C, K278C]) | also measured |
| --- | --- | --- | --- | --- | --- | --- | --- | --- | --- | --- | --- | --- | --- | --- | --- | --- | --- | --- | --- | --- | --- |
| C=CC(=O)NC1(c2noc(C)n2)CCCCCC1 [CA-162] | 0.1023 | 0.006071 | 0.02564 | 0.05936 | 6.607 | 0.3922 | 0.02529 | 0.5566 | 0.03304 | 14.75 | 0.9863 | 1.07 | 0.06352 | 0.3725 | 0.02211 | 0.05133 | 0.003047 | 0.4092 | 0.1273 | 0.00171 | Rate constant with Cdk2 H71C (Cdk2(H71C) (C177A)): 0.02429; Rate constant with Cdk2 S181C (Cdk2(S181C) (C177A)): 0.007555 |
| C=CC(=O)N1C(=O)CC(c2ccccc2)N(C(=O)C=C)c2ccccc21 (stereo not drawn) [CA-165-1] | 0 | – | 0.4444 | 5.198 | 0 | – | 0.3945 | 1.092 | 5.676 | 0.3473 | 0.8877 | 0 | – | 0 | – | 0.661 | 3.436 | 0 | 0 | 1.136 | – |
| C=CC(=O)N(c1ccc2c(c1)OCCO2)C1CC1 [CA-167] | 0.1363 | 0.003155 | 0.01009 | 0.02315 | 2.016 | 0.04668 | 0.01101 | 0.4756 | 0.01101 | 4.177 | 1.091 | 0.3514 | 0.008135 | 0.2702 | 0.006256 | 0.289 | 0.00669 | 0.1567 | 0.343 | 0.00264 | Rate constant with Cdk2 H71C (Cdk2(H71C) (C177A)): 0.003628; Rate constant with Cdk2 S181C (Cdk2(S181C) (C177A)): 0.00794 |
| C=CC(=O)Nc1nc2c(s1)CCCCCC2 [CA-170] | 0.3489 | 0.02508 | 0.06955 | 0.07188 | 5.267 | 0.3786 | 0.2972 | 4.135 | 0.2972 | 0.3231 | 4.273 | 0.7229 | 0.05196 | 0.4672 | 0.03358 | 13.67 | 0.9829 | 0.9221 | 0.4978 | 0.9197 | Rate constant with Cdk2 H71C (Cdk2(H71C) (C177A)): 0.06628; Rate constant with Cdk2 S181C (Cdk2(S181C) (C177A)): 0.03578 |
| C=CC(=O)NC1c2ccccc2Oc2ccccc21 [CA-171] | 0.2126 | 0.00155 | 0.00416 | 0.00729 | 13.51 | 0.09852 | 0.00423 | 1.547 | 0.01128 | 3.343 | 1.018 | 0.5204 | 0.003794 | 1.029 | 0.007502 | 0 | – | 0.4785 | 0.8523 | 0.00127 | Rate constant with Cdk2 H71C (Cdk2(H71C) (C177A)): 0.003488; Rate constant with Cdk2 S181C (Cdk2(S181C) (C177A)): 0.006213 |
| C=CC(=O)N1CC(n2cccn2)C1 [CA-173] | 0.3379 | 0.005288 | 0.01577 | 0.01565 | 2.778 | 0.04347 | 0.00754 | 0.4816 | 0.007537 | 1.495 | 0.4779 | 1.187 | 0.01857 | 0.6511 | 0.01019 | 0.3401 | 0.005323 | 0.1755 | 1.349 | 0.00504 | Rate constant with Cdk2 H71C (Cdk2(H71C) (C177A)): 0.002746; Rate constant with Cdk2 S181C (Cdk2(S181C) (C177A)): 0.02111 |
| C=CC(=O)N(Cc1ccco1)Cc1cc2cc(C)ccc2o1 [CA-178] | 1.616 | 0.2555 | 0.1415 | 0.1581 | 2.909 | 0.4599 | 0.1507 | 0.9532 | 0.1507 | 0.2468 | 1.065 | 2.953 | 0.4669 | 3.356 | 0.5306 | 1.581 | 0.2499 | 5.546 | 0.8912 | 0.6107 | Rate constant with Cdk2 H71C (Cdk2(H71C) (C177A)): 0.8769; Rate constant with Cdk2 S181C (Cdk2(S181C) (C177A)): 0.1409 |
